Data reported in article PMC12028158, “Synthesis and In Vitro Evaluation of the Anticancer Effect of Novel Phosphonium Vindoline Derivatives” (International Journal of Molecular Sciences, 2025).

Tests used:
NIH/3T3 (fibroblast) = assay: MTT antiproliferative assay; type: cell-based; conditions: Mus musculus, 72 h
Protocol: (§1) The antiproliferative properties of the tested compounds were additionally determined using the MTT assay against a panel of human adherent cancer cell lines isolated from breast (MCF-7 and MDA-MB-231), cervical (HeLa and SiHa), and ovarian (A2780) tumors and also on the NIH/3T3 fibroblast cell line (Table 3). IC50 values were calculated from a wider concentration range (0.1–30 μM) when higher than 50% cell growth inhibition was obtained at 10 μM (Table 4). Cisplatin was used as a reference compound. […] The noncancerous fibroblast cell line NIH/3T3 was used to gather preliminary data regarding the cancer selectivity of vindolin derivatives. […] The tumor selectivity of compound 9g, expressed as the ratio of IC50 on cancer cells and fibroblasts, is substantially higher than that of cisplatin (Table 4).
(§2) The antiproliferative effects of the prepared derivatives were evaluated in vitro using the MTT assay against a panel of human adherent cancer cell lines, including breast (MDA-MB-231, MCF-7), cervical (SiHa, HeLa), and ovarian (A2780) cancer cells. The noncancerous fibroblast cell line NIH/3T3 was included to obtain data concerning the tumor selectivity of the test substances. All cell lines were sourced from the European Collection of Cell Cultures (Salisbury, UK), except for SiHa (American Tissue Culture Collection (Manassas, VA, USA). All cell lines were maintained in Eagle’s Minimal Essential Medium (EMEM) supplemented with 10% fetal bovine serum (FBS), 1% non-essential amino acids, and a mixture of penicillin, streptomycin, and amphotericin B. The cells were maintained in a humidified atmosphere containing 5% CO2 at 37 °C. The media and the cell culture supplements were procured from Capricorn Scientific Ltd. (Ebsdorfergrund, Germany). Cells were seeded into 96-well microplates at 5000/well and, the next day, treated with vindoline derivatives at two concentrations (10 or 30 μM) for 72 h under cell culturing conditions. […] When higher than 50% cell growth inhibition was observed, the assay was repeated using a wide concentration range (0.1–30 μM). The IC50 values were calculated using GraphPad Prism software 10.3.1 (GraphPad Software, San Diego, CA, USA). Two independent experiments were performed with at least five replicates per condition.

[1] = tested on: panel of human adherent cancer cell lines; assay: MTT antiproliferative assay, whole cancer panel; type: cell-based; conditions: Homo sapiens
Protocol: as §1, §2

HeLa = assay: MTT antiproliferative assay; type: cell-based, human
Protocol: as §1, §2

MDA-MB-231 = assay: MTT antiproliferative assay; type: cell-based, human
Protocol: as §1, §2

A2780 = assay: MTT antiproliferative assay; type: cell-based, human
Protocol: as §1, §2

SiHa = assay: MTT antiproliferative assay; type: cell-based, human
Protocol: as §1, §2

MCF-7 = assay: MTT antiproliferative assay; type: cell-based, human
Protocol: as §1, §2

For CC[C@]12C=CCN3CC[C@@]4(c5ccc(OC)cc5N(C)[C@H]4[C@@](O)(C(=O)OC)[C@@H]1OC(=O)CCC[P+](c1ccccc1)(c1ccccc1)c1ccccn1)[C@@H]32 [9g], the inhibition at 10 µM (NIH/3T3 (fibroblast); NIH3T3, 10 μM, read-out: Growth Inhibition (%) ± SEM) was 34.6 ± 1.11%, the inhibition at 30 µM (NIH/3T3 (fibroblast); NIH3T3, 30 μM, read-out: Growth Inhibition (%) ± SEM (converted)) was 77.2% and the IC50 (NIH/3T3 (fibroblast); NIH3T3, MTT, read-out: IC50 Value (μM) ± SEM) was 14.37 ± 0.02 µM. The inhibition at 10 µM ([1]; 10 μM, against all tested cancer cells, read-out: cell growth inhibition) was greater than 60%, the IC50 ([1]; range over the cancer cells) was 1500 to 6480 nM and the inhibition at 10 µM (HeLa; Homo sapiens, HeLa, 10 μM, 72 h, read-out: Growth Inhibition (%) ± SEM) was 61.5 ± 2.35%. The inhibition at 30 µM (HeLa; Homo sapiens, HeLa, 30 μM, 72 h, read-out: Growth Inhibition (%) ± SEM (converted)) was 68.5%, the IC50 (HeLa; Homo sapiens, HeLa, MTT, 72 h, read-out: IC50 Value (μM) ± SEM) was 6.48 ± 0.12 µM and the “Selectivity Ratio” value (HeLa; ratio of IC50 on HeLa cells and NIH/3T3 fibroblasts) was 0.45. It also gave an inhibition at 10 µM (MDA-MB-231; Homo sapiens, MDA-MB-231, 10 μM, 72 h, read-out: Growth Inhibition (%) ± SEM) of 72.04 ± 0.35%, an inhibition at 30 µM (MDA-MB-231; Homo sapiens, MDA-MB-231, 30 μM, 72 h, read-out: Growth Inhibition (%) ± SEM (converted)) of 87.7% and an IC50 (MDA-MB-231; Homo sapiens, MDA-MB-231, MTT, 72 h, read-out: IC50 Value (μM) ± SEM) of 3.35 ± 0.12 µM. For the same molecule, the “Selectivity Ratio” value (MDA-MB-231; ratio of IC50 on MDA-MB-231 cells and NIH/3T3 fibroblasts) was 0.23, the inhibition at 10 µM (A2780; Homo sapiens, A2780, 10 μM, 72 h, read-out: Growth Inhibition (%) ± SEM) was 79.4 ± 2.63% and the inhibition at 30 µM (A2780; Homo sapiens, A2780, 30 μM, 72 h, read-out: Growth Inhibition (%) ± SEM (converted)) was 85.5%. For the same molecule, the IC50 (A2780; Homo sapiens, A2780, MTT, 72 h, read-out: IC50 Value (μM) ± SEM) was 1.5 ± 0.2 µM, the “Selectivity Ratio” value (A2780; ratio of IC50 on A2780 cells and NIH/3T3 fibroblasts) was 0.10 and the inhibition at 10 µM (SiHa; Homo sapiens, SiHa, 10 μM, 72 h, read-out: Growth Inhibition (%) ± SEM) was 62.5 ± 0.87%. The inhibition at 30 µM (SiHa; Homo sapiens, SiHa, 30 μM, 72 h, read-out: Growth Inhibition (%) ± SEM (converted)) was 83.8%, the IC50 (SiHa; Homo sapiens, SiHa, MTT, 72 h, read-out: IC50 Value (μM) ± SEM) was 2.42 ± 0.05 µM and the “Selectivity Ratio” value (SiHa; ratio of IC50 on SiHa cells and NIH/3T3 fibroblasts) was 0.17. For the same molecule, the inhibition at 10 µM (MCF-7; Homo sapiens, MCF7, MCF-7, 10 μM, 72 h, read-out: Growth Inhibition (%) ± SEM) was 81.9 ± 0.84%, the inhibition at 30 µM (MCF-7; Homo sapiens, MCF7, MCF-7, 30 μM, 72 h, read-out: Growth Inhibition (%) ± SEM (converted)) was 89.9% and the IC50 (MCF-7; Homo sapiens, MCF7, MCF-7, MTT, 72 h, read-out: IC50 Value (μM) ± SEM) was 2.56 ± 0.1 µM. For the same molecule, the “Selectivity Ratio” value (MCF-7; ratio of IC50 on MCF-7 cells and NIH/3T3 fibroblasts) was 0.18.
